Results on 35 compounds are retold here after patent US8987258B2 (priority 2008, dated 2015).

The target of the test is T1, SIRT1 (Homo sapiens, UniProt Q96EB6).
T1 sequence (Q96EB6 1-747): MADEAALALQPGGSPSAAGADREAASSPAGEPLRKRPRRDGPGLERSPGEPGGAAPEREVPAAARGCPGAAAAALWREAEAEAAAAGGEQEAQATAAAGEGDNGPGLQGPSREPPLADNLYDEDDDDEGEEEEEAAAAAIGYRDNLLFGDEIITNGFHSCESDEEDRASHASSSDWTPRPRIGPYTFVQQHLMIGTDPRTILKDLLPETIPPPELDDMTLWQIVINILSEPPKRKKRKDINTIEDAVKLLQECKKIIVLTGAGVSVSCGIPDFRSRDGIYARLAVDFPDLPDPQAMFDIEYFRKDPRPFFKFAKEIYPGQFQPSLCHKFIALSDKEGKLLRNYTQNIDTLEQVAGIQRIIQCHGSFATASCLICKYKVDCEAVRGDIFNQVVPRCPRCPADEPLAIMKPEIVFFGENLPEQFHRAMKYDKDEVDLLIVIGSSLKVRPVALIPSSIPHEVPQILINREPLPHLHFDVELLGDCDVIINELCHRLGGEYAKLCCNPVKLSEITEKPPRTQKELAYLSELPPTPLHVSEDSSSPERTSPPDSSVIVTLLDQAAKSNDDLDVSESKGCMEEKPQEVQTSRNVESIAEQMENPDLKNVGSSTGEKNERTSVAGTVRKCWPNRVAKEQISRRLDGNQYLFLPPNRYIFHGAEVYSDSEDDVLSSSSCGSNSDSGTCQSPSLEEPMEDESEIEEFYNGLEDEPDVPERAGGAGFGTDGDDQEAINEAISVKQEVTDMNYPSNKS
The test is described as follows: Mass spectrometry based SIRT1 deacetylase activation assay. The test is classed as biochemical. The conditions noted are these: for EC1.5 μM: 0.5 μM peptide substrate, 120 μM βNAD+, 10 nM SIRT1, 25 min, 25° C.; for Emax: 25 min, mass spectrometry assay, read-out: % Fold Act. (percent maximum fold activation). An excerpt: A mass spectrometry based assay was used to identify modulators of SIRT1 activity. The mass spectrometry based assay utilizes a peptide having 20 amino acid residues as follows: Ac-EE-K(biotin)-GQSTSSHSK(Ac)NleSTEG-K(5TMR)-EE-NH2 (SEQ ID NO: 1) wherein K(Ac) is an acetylated lysine residue and Nle is a norleucine. The peptide is labeled with the fluorophore 5TMR (excitation 540 nm/emission 580 nm) at the C-terminus. The sequence of the peptide substrate is based on p53 with several modifications. In addition, the methionine residue naturally present in the sequence was replaced with the norleucine because the methionine may be susceptible to oxidation during synthesis and purification.
The mass spectrometry assay is conducted as follows: 0.5 μM peptide substrate and 120 μM βNAD^+ is incubated with 10 nM SIRT1 for 25 minutes at 25° C. in a reaction buffer (50 mM Tris-acetate pH 8, 137 mM NaCl, 2.7 mM KCl, 1 mM MgCl2, 5 mM DTT, 0.05% BSA). Test compounds may be added to the reaction as described above. […] After the 25 minute incubation with SIRT1, 10 μL of 10% formic acid is added to stop the reaction. Reactions are sealed and frozen for later mass spec analysis. Determination of the mass of the substrate peptide allows for precise determination of the degree of acetylation (i.e. starting material) as compared to deacetylated peptide (product).
A control for inhibition of sirtuin activity is conducted by adding 1 μL of 500 mM nicotinamide as a negative control at the start of the reaction (e.g., permits determination of maximum sirtuin inhibition). A control for activation of sirtuin activity is conducted using 10 nM of sirtuin protein, with 1 μL of DMSO in place of compound, to determine the amount of deacetylation of the substrate at a given timepoint within the linear range of the assay. This timepoint is the same as that used for test compounds and, within the linear range, the endpoint represents a change in velocity.
For the above assay, SIRT1 protein was expressed and purified as follows. […] The protein was expressed by induction with 1 mM IPTG as an N-terminal His-tag fusion protein at 18° C. overnight and harvested at 30,000×g. Cells were lysed with lysozyme in lysis buffer (50 mM Tris-HCl, 2 mM Tris[2-carboxyethyl]phosphine (TCEP), 10 μM ZnCl2, 200 mM NaCl) and further treated with sonication for 10 min for complete lysis. The protein was purified over a Ni-NTA column (Amersham) and fractions containing pure protein were pooled, concentrated and run over a sizing column (Sephadex S200 26/60 global). The peak containing soluble protein was collected and run on an Ion-exchange column (MonoQ). Gradient elution (200 mM-500 mM NaCl) yielded pure protein. This protein was concentrated and dialyzed against dialysis buffer (20 mM Tris-HCl, 2 mM TCEP) overnight. The protein was aliquoted and frozen at −80° C. until further use.

Consider `Cc1cnc(NC(=O)c2cccc3c(=O)cc(-c4ccccc4Cl)oc23)s1` [Compound 270], for which the “EC1.5 μM” value is reported as “C (EC1.5>25 μM)” and the Emax is less than 200%.
With `O=C(Nc1cccc2c(=O)cc(-c3ccccc3Cl)oc12)c1cncc(N2CCOCC2)n1` [Compound 319], the “EC1.5 μM” value is “A (EC1-5<1.0)” and the Emax is more than 200%.
For `O=C(Nc1cccc2c(=O)cc(-c3ccccc3C(F)(F)F)oc12)c1cccc(N2CCOCC2)c1` [Compound 311] the same measures were “B (EC1.5 1-25 μM)” and more than 200%.
In the case of `O=C(Nc1ccccn1)c1cccc2c(=O)cc(-c3cccc(OC(F)(F)F)c3)oc12` [Compound 211], the “EC1.5 μM” value was “C (EC1.5>25 μM)” and the Emax was less than 200%.
Take `Cc1cnc(NC(=O)c2cccc3c(=O)cc(-c4cccc(F)c4F)oc23)s1` [Compound 295]: the “EC1.5 μM” value is “C (EC1.5>25 μM)” and the Emax was less than 200%.
Consider `O=C(Nc1cccc2c(=O)cc(-c3c(Cl)cccc3Cl)oc12)c1cscn1` [Compound 303], for which the “EC1.5 μM” value is “B (EC1.5 1-25 μM)” and the Emax was more than 200%.
Turning to `O=C(Nc1cccc2c(=O)cc(-c3ccccc3OC(F)F)oc12)c1cscn1` [Compound 264], the “EC1.5 μM” value is given as “C (EC1.5>25 μM)” and the Emax is less than 200%.
As to `O=c1cc(-c2ccccc2C(F)(F)F)oc2c(NS(=O)(=O)c3cccnc3)cccc12` [Compound 326, N-(4-oxo-2-(2-(trifluoromethyl)phenyl)-4H-chromen-8-yl)pyridine-3-sulfonamide], the “EC1.5 μM” value was “C (EC1.5>25 μM)” and the Emax is less than 200%.
The matching figures for `O=C1CCC(C(=O)Nc2cccc3c(=O)cc(-c4ccccc4C(F)(F)F)oc23)N1` (stereo not shown) [Compound 313, 5-oxo-N-(4-oxo-2-(2-(trifluoromethyl)phenyl)-4H-chromen-8-yl)pyrrolidine-2-carboxamide]: “B (EC1.5 1-25 μM)” and more than 200%.
With `O=C(Nc1cccc2c(=O)cc(-c3ccccc3)oc12)c1cnccn1` [Compound 201], the “EC1.5 μM” value is “C (EC1.5>25 μM)” and the Emax was less than 200%.
On to `Cc1cnc(NC(=O)c2cccc3c(=O)cc(-c4ccccc4F)oc23)s1` [Compound 271], for which the “EC1.5 μM” value is given as “C (EC1.5>25 μM)” and the Emax was less than 200%.
In the case of `O=C(Nc1cccc2c(=O)cc(-c3ccccc3Cl)oc12)c1cnccn1` [Compound 280], the “EC1.5 μM” value is given as “A (EC1-5<1.0)” and the Emax is more than 200%.
For `O=C(Nc1cccc2c(=O)cc(-c3ccccc3Cl)oc12)c1cccnc1OCC(O)CO` (stereo not shown) [Compound 332] the same measures were “B (EC1.5 1-25 μM)” and more than 200%.
Consider `Cc1cnc(NC(=O)c2cccc3c(=O)cc(-c4cnccc4C(F)(F)F)oc23)s1` [Compound 310], for which the “EC1.5 μM” value is on record as “B (EC1.5 1-25 μM)” and the Emax is less than 200%.
As to `O=C(Nc1cccc2c(=O)cc(-c3ccccc3C(F)(F)F)oc12)c1ccncn1` [Compound 253], the “EC1.5 μM” value is recorded as “A (EC1-5<1.0)” and the Emax is more than 200%.
Take `CN1CCCC1C(=O)Nc1cccc2c(=O)cc(-c3ccccc3C(F)(F)F)oc12` (stereo not shown) [Compound 317]: the “EC1.5 μM” value is recorded as “B (EC1.5 1-25 μM)” and the Emax is less than 200%.
The matching figures for `Cc1cnc(NC(=O)c2cccc3c(=O)cc(-c4ccccn4)oc23)s1` [Compound 238]: “C (EC1.5>25 μM)” and less than 200%.
Regarding `CS(=O)(=O)c1cccc(-c2cc(=O)c3cccc(NC(=O)c4cnccn4)c3o2)c1` [Compound 219], the “EC1.5 μM” value is “C (EC1.5>25 μM)” and the Emax was less than 200%.
For `O=C(Nc1cccc2c(=O)cc(-c3ccccc3OC(F)F)oc12)c1cnccn1` [Compound 263] the same measures were “C (EC1.5>25 μM)” and less than 200%.
For `O=C(Nc1cccc2c(=O)cc(-c3ccccc3Cl)oc12)c1ncccn1` [Compound 335], the “EC1.5 μM” value is on record as “A (EC1-5<1.0)” and the Emax was more than 200%.
The matching figures for `O=C(Nc1cccc2c(=O)cc(-c3ccccc3Cl)oc12)c1cccc(CN2CCCC2)c1` [Compound 333]: “B (EC1.5 1-25 μM)” and more than 200%.
In the case of `O=C(Nc1cccc2c(=O)cc(-c3ccccc3Cl)oc12)c1cccc(N2CCOCC2)n1` [Compound 324], the “EC1.5 μM” value was “A (EC1-5<1.0)” and the Emax is more than 200%.
For `O=C(Nc1cccc2c(=O)cc(-c3ccccc3C(F)(F)F)oc12)c1cccc(N2CCCC2)c1` [Compound 312] the same measures were “B (EC1.5 1-25 μM)” and more than 200%.
The matching figures for `O=C(Nc1nccs1)c1cccc2c(=O)cc(-c3cccc(N4CCOCC4)c3)oc12` [Compound 208]: “C (EC1.5>25 μM)” and less than 200%.
For `O=C(Nc1cccc2c(=O)cc(-c3ccccc3C(F)F)oc12)c1cscn1` [Compound 283] the same measures were “A (EC1-5<1.0)” and more than 200%.
For the compound `COc1ccccc1-c1cc(=O)c2cccc(NC(=O)c3cscn3)c2o1` [Compound 255], the “EC1.5 μM” value was “C (EC1.5>25 μM)” and the Emax was less than 200%.
For `O=C(Nc1cccc2c(=O)cc(-c3ccccc3Cl)oc12)c1cccc(OCC(O)CO)n1` (stereo not shown) [Compound 334], the “EC1.5 μM” value is reported as “A (EC1-5<1.0)” and the Emax is more than 200%.
`O=C(Nc1cccc2c(=O)cc(-c3ccccc3C(F)(F)F)oc12)c1cncnc1` [Compound 260]: the “EC1.5 μM” value is “C (EC1.5>25 μM)” and the Emax was less than 200%.
For `O=C(Nc1cccc2c(=O)cc(-c3c(F)cccc3Cl)oc12)c1cnccn1` [Compound 296] the same measures were “A (EC1-5<1.0)” and more than 200%.
For `O=C(Nc1cccc2c(=O)cc(-c3cccnc3C(F)(F)F)oc12)c1cscn1` [Compound 307] the same measures were “A (EC1-5<1.0)” and more than 200%.
With `O=C(Nc1cccc2c(=O)cc(-c3cccnc3C(F)(F)F)oc12)c1cnccn1` [Compound 306, N-(4-oxo-2-(2-(trifluoromethyl)pyridin-3-yl)-4H-chromen-8-yl)pyrazine-2-carboxamide], the “EC1.5 μM” value is reported as “B (EC1.5 1-25 μM)” and the Emax is more than 200%.
In the case of `Cn1nccc1C(=O)Nc1cccc2c(=O)cc(-c3ccccc3Cl)oc12` [Compound 337], the “EC1.5 μM” value was “A (EC1-5<1.0)” and the Emax was more than 200%.
`CS(=O)(=O)c1ccccc1-c1cc(=O)c2cccc(NC(=O)c3cscn3)c2o1` [Compound 266]: the “EC1.5 μM” value is “B (EC1.5 1-25 μM)” and the Emax is less than 200%.
As to `O=C(Nc1cccc2c(=O)cc(-c3cccc(C(F)(F)F)c3)oc12)c1cscn1` [Compound 204, N-(4-oxo-2-(3-(trifluoromethyl)phenyl)-4H-chromen-8-yl)thiazole-4-carboxamide], the “EC1.5 μM” value is reported as “B (EC1.5 1-25 μM)” and the Emax was less than 200%.
Take `O=C(Nc1cccc2c(=O)cc(-c3cc(F)ccc3Cl)oc12)c1cscn1` [Compound 301]: the “EC1.5 μM” value was “C (EC1.5>25 μM)” and the Emax is less than 200%.
